Data reported in patent US9499582B2, “Compositions and methods for increasing carnitine level in muscle tissue” (Oneday—Biotech And Pharma Ltd., priority 2012, dated 2016).

Assays:
[1] = system: carnitine level in skeletal muscle tissue; assay: Carnitine levels in mouse tissues after i.p. peptide administration (commercial carnitine kit); assay type: in vivo, Male ICR mice
Description: (§1) Male ICR mice were injected i.p. with 250 mg/kg of the DY-65 peptide for 5 consecutive days. Half an hour after the last injection lung, heart, skeletal muscle (femural), brain, liver, kidney and blood were removed, homogenized (100 mg tissue in 200 μl distilled water), centrifuged and filtrated through 30K Microcon® filter. Carnitine analysis was carried out by a commercial kit (BIOVISION™, catalogue number K642-100). n=4 for each group.

[2] = Toxicity observation in mice treated with the peptide; assay type: in vivo; conditions: male ICR mice, 250 mg/kg i.p. for 5 consecutive days
[3] = system: carnitine level in other tissues, including liver and kidneys; assay: Carnitine levels in other mouse tissues (lung, heart, brain, liver, kidney, blood) after i.p. peptide administration; assay type: in vivo; conditions: male ICR mice, 250 mg/kg i.p. for 5 consecutive days, tissues removed half an hour after last injection
Description: as §1

Row | Substance | elevation in the level of carnitine in skeletal muscle tissue ([1]; healthy male ICR mice, 250 mg/kg i.p. for 5 consecutive days, femural skeletal muscle removed half an hour after last injection, p<0.05, n=4) | toxicity effects [2] | elevation in carnitine level in other tissues, including liver and kidneys [3] | increased carnitine levels compared to baseline levels in any of the tissues examined ([1]; experiment of Example 1 repeated, all tissues examined (lung, heart, skeletal muscle, brain, liver, kidney, blood))
1 | N-acetyl-Cys-Lys-Met-Cys-NH2 (Ac-CKMC-NH2; cysteine pairing not given here) [DY-65] | about 150% | no toxicity effects were observed | did not demonstrate a significant elevation in carnitine level | –
2 | N-acetyl-Cys-Met-Lys-Cys-NH2 (Ac-CMKC-NH2; cysteine pairing not given here) [DY-70, reference compound] | – | – | – | did not result in increased carnitine levels
